# Test results reported in patent publication US20260048142A1, “METAL-CHELATED POLYPHENOL COMPLEX NANOPARTICLE, DRUG-LIPID PARTICLE, PREPARATION METHODS FOR THE SAME, AND USES THEREOF” (priority 2022, published 2026).
# Like-named read-outs stand apart in the source and are kept apart here.
# Tested on: 293T cells
# Test: CCK8 cell activity, median lethal dose IC50
# Format: cell-based, Human
# Protocol: After incubating 293T cells with different concentrations of the metal-chelated polyphenol complex ([…]), cationic lipid (DOTAP, 0, 0.1, 0.3, 0.9, 2.7, 8.1, 24.3, 72.9, 218.7 μM) and ionizable lipid (ALC0315, 0, 0.1, 0.3, 0.9, 2.7, 8.1, 24.3, 72.9, 218.7 μM) for 48 hours, cell activity was detected using a CCK8 activity detection kit, and the median lethal dose IC50 of the metal-chelated polyphenol complex, cationic lipid (DOTAP) and ionizable lipid (ALC0315) for 293T cells was calculated respectively.
# • Cell culture: cells were cultivated with DMEM culture medium containing 10% FBS and 1% Penicillin-Streptomycin Solution, and wait until the cell density reached 80%-90% of the culture bottle; • The remaining culture medium in the culture bottle was washed with PBS, the culture bottle was added with trypsin, and quickly transferred to a 37° C. incubator containing 5% CO2. During close observation, when the cells become slightly round, culture medium was added to stop digestion. The mixture was transferred to a centrifuge tube, centrifuged at 1500 RPM for 5 minutes, and the cells were resuspended with fresh culture medium; • Counting: the cell suspension was diluted to 10,0000 cells per 1 mL according to the purpose, 100 μL per well in a 96-well plate, and at least 5 replicates per group. Drug was added after 24 h of incubation at 37° C., 5% CO2; • After drug incubation for 48 h, 10% CCK8 was added, incubated for 1-3 h, and absorbance was measured by an ELISA reader at 450 nm;
# [formula] • IC50 calculation method: with survival rate as the ordinate and drug concentration as the abscissa, IC50 was calculated by Graphpad using [Inhibitor] vs. normalized response-Variable slope analysis method.
# The calculation method of IC50 is as described in Example 10.
SMILES,"IC50 (Table 2-2, median lethal dose for 293T cells, 48 hours, CCK8, read-out: IC50) [µM]","IC50 (Table 4-3, median lethal dose for 293T cells, CCK8, read-out: IC50) [µM]","IC50 (Homo sapiens, HEK-293T, 48 h) [µM]","IC50 (Homo sapiens, HEK-293T, Table 4-3, median lethal dose for 293T cells, CCK8, read-out: IC50) [µM]"
"CCCCCCCC/C=C\CCCCCCCC(=O)OCC(C[N+](C)(C)C)OC(=O)CCCCCCC/C=C\CCCCCCCC (stereo not shown) [DOTAP, N-(2,3-dioleoyloxy) propyl)-N,N, N-trimethylammonium chloride]",25.7,25.7,–,–
CCCCCCCCC(CCCCCC)C(=O)OCCCCCCN(CCCCO)CCCCCCOC(=O)C(CCCCCC)CCCCCCCC (stereo not shown) [ALC0315],–,–,115,115
